# T1: Farnesyltransferase (Saccharomyces cerevisiae S288c, UniProt P22007+P29703)
# T1 sequence (P29703 whole entry): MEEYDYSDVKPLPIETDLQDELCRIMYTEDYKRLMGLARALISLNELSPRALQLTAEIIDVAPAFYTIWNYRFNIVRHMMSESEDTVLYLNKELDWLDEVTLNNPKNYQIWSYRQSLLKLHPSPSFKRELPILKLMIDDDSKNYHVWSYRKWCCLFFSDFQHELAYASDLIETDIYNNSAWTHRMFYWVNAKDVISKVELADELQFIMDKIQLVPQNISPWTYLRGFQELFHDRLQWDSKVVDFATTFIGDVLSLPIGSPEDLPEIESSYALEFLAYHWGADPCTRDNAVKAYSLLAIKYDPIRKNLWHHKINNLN
# T1 sequence (P22007 whole entry): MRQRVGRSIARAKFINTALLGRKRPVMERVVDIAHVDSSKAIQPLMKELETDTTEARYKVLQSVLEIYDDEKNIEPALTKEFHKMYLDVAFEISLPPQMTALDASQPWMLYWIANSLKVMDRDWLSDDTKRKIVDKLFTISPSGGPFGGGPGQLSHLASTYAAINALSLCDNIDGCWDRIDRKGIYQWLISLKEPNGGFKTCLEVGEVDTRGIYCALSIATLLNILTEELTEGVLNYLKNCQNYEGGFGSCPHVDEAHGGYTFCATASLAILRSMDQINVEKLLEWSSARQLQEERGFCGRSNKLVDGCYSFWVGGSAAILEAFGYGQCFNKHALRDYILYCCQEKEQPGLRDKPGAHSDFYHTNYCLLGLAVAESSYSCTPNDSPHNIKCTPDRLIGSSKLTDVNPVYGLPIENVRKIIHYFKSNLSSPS
# Columns and labels:
# Farnesyltransferase = target: T1, Farnesyltransferase; test: (§1) Dissociation constant against yeast farnesyltransferase; format: protein-complex assay
# [1] = substrate: CC(C)=CCC/C(C)=C/CC/C(C)=C/COP(=O)(O)OP(=O)(O)O; test: as §1; format: protein-complex assay; details: Saccharomyces cerevisiae
molecule,measurement,setting,value
CC(C)=C/C=C/C(C)=C/C=C/C(C)=C/COP(=O)(O)OP(=O)(O)O,Ki,Farnesyltransferase,8.8 µM
"Farnesyltransferase (Saccharomyces cerevisiae S288c), P29703+P22007 (protein) chain 1: MEEYDYSDVKPLPIETDLQDELCRIMYTEDYKRLMGLARALISLNELSPRALQLTAEIIDVAPAFYTIWNYRFNIVRHMMSESEDTVLYLNKELDWLDEVTLNNPKNYQIWSYRQSLLKLHPSPSFKRELPILKLMIDDDSKNYHVWSYRKWCCLFFSDFQHELAYASDLIETDIYNNSAWTHRMFYWVNAKDVISKVELADELQFIMDKIQLVPQNISPWTYLRGFQELFHDRLQWDSKVVDFATTFIGDVLSLPIGSPEDLPEIESSYALEFLAYHWGADPCTRDNAVKAYSLLAIKYDPIRKNLWHHKINNLN chain 2: MRQRVGRSIARAKFINTALLGRKRPVMERVVDIAHVDSSKAIQPLMKELETDTTEARYKVLQSVLEIYDDEKNIEPALTKEFHKMYLDVAFEISLPPQMTALDASQPWMLYWIANSLKVMDRDWLSDDTKRKIVDKLFTISPSGGPFGGGPGQLSHLASTYAAINALSLCDNIDGCWDRIDRKGIYQWLISLKEPNGGFKTCLEVGEVDTRGIYCALSIATLLNILTEELTEGVLNYLKNCQNYEGGFGSCPHVDEAHGGYTFCATASLAILRSMDQINVEKLLEWSSARQLQEERGFCGRSNKLVDGCYSFWVGGSAAILEAFGYGQCFNKHALRDYILYCCQEKEQPGLRDKPGAHSDFYHTNYCLLGLAVAESSYSCTPNDSPHNIKCTPDRLIGSSKLTDVNPVYGLPIENVRKIIHYFKSNLSSPS",Km,[1],27 µM

# — ChEMBL document CHEMBL1147548, “Didehydrofarnesyl diphosphate: an intrinsically fluorescent inhibitor of protein farnesyltransferase” (Bioorg Med Chem Lett, 2004)
